Measurements taken from patent US5280548A, “Emission based fiber optic sensors for pH and carbon dioxide analysis” (BOC Health Care, Inc., priority 1993, dated 1994).
Entries after “also recorded” stand apart in the source; their conditions may differ. Read-outs that look alike come from different tables or passages of the source.

Key:
[1] = 25° C.; cited from earlier work
[2] = for emission yield (Φ): 25° C.
Procedure: Emission spectra were recorded on either a ISS Greg-200 spectrofluorometer or a single-fiber spectrofluorometer discussed below. Absorption spectra were recorded on a Perkin-Elmer Lambda 5 spectrophotometer. Lifetime measurements were recorded with the ISS Greg-200 spectrofluorometer using excitation by a Coherent 700 Dye Laser with Rhodamine 6G synchronously pumped with a frequency doubled Coherent Antares mode-locked Nd:YAG laser. The mode-locker was driven by a Marconi Instruments 2022a frequency synthesizer locked in phase to another Marconi Instruments 2022a frequency synthesizer which modulated the photomultiplier tubes on the Greg-200 instrument.
Emission yields were corrected for instrument response and measured using tetraphenylporphyrin in benzene, .PHI.=0.11 [Seybold, Paul G.; Gouterman, Martin J. Mol. Spectrosc. 1969, 31, 1-13], as a standard. Lifetime measurements were calibrated with scattered light, .tau.=0. […] The output from the laser was measured before and after the experiment to ensure constant excitation intensity.

Solubility observations = assay type: physicochemical
Procedure: The polymers prepared above were soluble in acetone, dioxane, tetrahydrofuran, ethanol, and dimethylacetamide. A concentrated solution of the polymer in one of these solvents was prepared and applied to the distal tip of a methacrylate optical fiber, the tip of which had been prepared by cleaving normal to its longitudinal axis with a fresh scalpel blade. The sensors were allowed to dry overnight before use.

[3] = pKa determination from pH-dependent emission; assay type: physicochemical
Procedure: (§1) The effect of temperature on the parameters describing the pH dye was determined. […] The emission spectra were measured as a function of pH at 20° C., 25° C., 30° C., 37° C., and 45° C. […] The relative emission intensity, B, was defined as the ratio of the emission from the base tautomer at 650 nm to the emission from the isosbestic point. The relative emission, A, was defined as the ratio of the isosbestic point emission to the emission from the acid tautomer at 650 nm. The quantities A and B define the upper and lower asymptotes on the response vs. pH sigmoidal curve. The pKa, A, and B were determined for the series of emission spectra at each temperature by fitting the emission intensity at 650 nm to the theoretical response vs. pH curve using non-linear regression.

[4] = Effect of temperature on emission parameters A and B of the pH dye; assay type: physicochemical; settings: for A (relative emission, lower asymptote of response vs. pH) / B (relative emission intensity, base tautomer / isosbestic point): 650 nm
Procedure: as §1

[5] = Emission lifetime measurement; assay type: physicochemical; settings: for lifetime (τ): 25° C.
Text: 1969, 31, 1-13], as a standard.

Absorption spectra = assay type: physicochemical; settings: 25° C.
Procedure: Absorption spectra were recorded on a Perkin-Elmer Lambda 5 spectrophotometer.

[6] = aqueous solution, 540 nm excitation

Compound: O=C=O [carbon dioxide]
- pKa1 [1]: 6.35
- pKa2 [1]: 10.33
- solubility in water [1]: 0.759 ml carbon dioxide @ STP/ml water

Compound: seminaphthorhodaflor-1-carboxylate [SNARF-1C]
- emission yield (Φ) ([2]; acid form, Conc. 10e-6 M): .12
- emission yield (Φ) ([2]; acid form, Conc. 10e-5 M): .12
- emission yield (Φ) ([2]; acid form, Conc. 10e-4 M): .018
- emission yield (Φ) ([2]; base form, Conc. 10e-6 M): .2
- emission yield (Φ) ([2]; base form, Conc. 10e-5 M): .22
- emission yield (Φ) ([2]; base form, Conc. 10e-4 M): .082
- emission maximum, acid peak [2, 6]: 590 nm
- emission maximum, base peak [2, 6]: 640 nm
- isosbestic point ([2]; emission spectra as a function of pH): 605 nm
- emission spectra, in words ([2]; shift of spectra): do not differ from the previously published spectra; also recorded: did not shift with temperature
- solubility, in words (Solubility observations): The potassium salt of the acid was much easier to dissolve
- pKa ([3]; 20° C. (Table 2)): 7.79 ± .03
- pKa ([3]; 25° C. (Table 1)): 7.58 ± 0.04
- pKa ([3]; 25° C. (Table 2)): 7.58 ± .01
- pKa ([3]; 30° C. (Table 2)): 7.57 ± .03
- pKa ([3]; 37° C. (Table 1)): 7.44 ± 0.05
- pKa ([3]; 37° C. (Table 2)): 7.44 ± .04
- pKa ([3]; 45° C. (Table 2)): 7.43 ± .06
- A and B vs. temperature, in words ([4]; 20-45° C.): independent of temperature
- A (relative emission, lower asymptote of response vs. pH) ([4]; 20° C.): .721 ± .062
- B (relative emission intensity, base tautomer / isosbestic point) ([4]; 20° C.): 5.07 ± .11
- A (relative emission, lower asymptote of response vs. pH) ([4]; 25° C.): .628 ± .061
- B (relative emission intensity, base tautomer / isosbestic point) ([4]; 25° C.): 4.22 ± .10
- A (relative emission, lower asymptote of response vs. pH) ([4]; 30° C.): .678 ± .072
- B (relative emission intensity, base tautomer / isosbestic point) ([4]; 30° C.): 4.95 ± .12
- A (relative emission, lower asymptote of response vs. pH) ([4]; 37° C.): .702 ± .069
- B (relative emission intensity, base tautomer / isosbestic point) ([4]; 37° C.): 4.10 ± .11
- A (relative emission, lower asymptote of response vs. pH) ([4]; 45° C.): .674 ± .127
- B (relative emission intensity, base tautomer / isosbestic point) ([4]; 45° C.): 5.48 ± .19
- emission lifetime, in words [5]: The emission lifetimes are insensitive to concentration; also recorded: The lifetime of the acid tautomer of SNARF-1C is shorter than that for the base tautomer
- lifetime (τ) ([5]; acid form, Conc. 10e-6 M): .80 ns
- lifetime (τ) ([5]; acid form, Conc. 10e-5 M): .80 ns
- lifetime (τ) ([5]; acid form, Conc. 10e-4 M): .78 ns
- lifetime (τ) ([5]; base form, Conc. 10e-6 M): 1.38 ns
- lifetime (τ) ([5]; base form, Conc. 10e-5 M): 1.41 ns
- lifetime (τ) ([5]; base form, Conc. 10e-4 M): 1.26 ns
- lifetime, acid tautomer ([5]; acid tautomer): 800 psec
- lifetime of acid tautomer, difference from previous measurement ([5]; vs. Whitaker et al. 1991): 200 psec
- lambda max (Absorption spectra; acid form, Conc. 10e-6 M): 551 nm
- ε (Absorption spectra; acid form, Conc. 10e-6 M): 19920 M⁻¹ cm⁻¹
- lambda max (Absorption spectra; acid form, Conc. 10e-5 M): 553 nm
- ε (Absorption spectra; acid form, Conc. 10e-5 M): 19380 M⁻¹ cm⁻¹
- lambda max (Absorption spectra; acid form, Conc. 10e-4 M): 549 nm
- ε (Absorption spectra; acid form, Conc. 10e-4 M): 12650 M⁻¹ cm⁻¹
- lambda max (Absorption spectra; base form, Conc. 10e-6 M): 577 nm
- ε (Absorption spectra; base form, Conc. 10e-6 M): 38220 M⁻¹ cm⁻¹
- lambda max (Absorption spectra; base form, Conc. 10e-5 M): 576 nm
- ε (Absorption spectra; base form, Conc. 10e-5 M): 37510 M⁻¹ cm⁻¹
- lambda max (Absorption spectra; base form, Conc. 10e-4 M): 572 nm
- ε (Absorption spectra; base form, Conc. 10e-4 M): 27770 M⁻¹ cm⁻¹
